# Legend:
# [1] = test system: rat paw edema evoked by carrageenan; test: Carrageenan induced paw edema test in rats; format: in vivo; settings: 10 mg/kg
# Experimental: (§1) The anti-inflammatory effects of above extracts of the present invention were investigated in acute inflammatory models induced by either carrageenan or egg white.
# (§2) Rats received a subplantar injection of carrageenan (0.1 ml of a 1% suspension in 0.85% saline; Sigma Chemical Co., St Louis, Mo., USA) or egg white (0.1 ml of a 10% solution in 0.85% saline) in the left hind paw. The total volume injected was 0.1 ml.
# (§3) Indomethacin was administered to animals in the positive control group.
# (§4) The volume of paw edema (in ml) was measured in each animal using a plethysmometer (Plethysmometer 7150, Ugo Basile, Italy) to a precision of two decimal places. The measurements were made immediately before and 2, 4, 6, 24 h after the carrageenan injection or 1, 2, 3, and 4 h after the injection of egg white. The swelling rate of paw was the percentage difference in paw volume and calculated by the following equation: Swelling rate (%)=(A−B)×100/B, where A represents the paw volume at different time points after injection, and B represents the paw volume before injection.
# (§5) Values are presented as mean±SD.
# [2] = test system: writhing activity of mice induced by acetic acid; test: Acetic acid writhing test in mice; format: in vivo, ICR mice; settings: one hour after administration; for The number of writhing episodes: mice
# Experimental: In the writhing test, acetic acid is injected into the intraperitoneal cavity of mice. This induces acute inflammatory pain characterized by a contraction wave of abdominal musculature through stretching of the hind limbs that is called writhing, and the number of writhing episodes is evaluated.
# Male and female ICR mice weighing 18 g to 25 g were fasted for one day before the test. […] The animals were then placed in individual 101×15 cm Plexiglas observation chambers for a 10-min acclimatization period. Acetic acid, 0.8% in 0.85% saline was injected i.p. into each mouse the animals were then returned into their respective transparent chambers.
# The animals were then observed for a specific period (15 or 20 mins) and the number of writhing episodes was counted. For scoring purpose, a writhe was indicated by a contraction wave of abdominal musculature with simultaneous stretching of at least one hind limb.
# as §5
# [3] = test system: rat paw edema evoked by egg white; test: Egg white induced paw edema test in rats; format: in vivo; settings: 8 mg/kg
# Experimental: as §1, §2, §3, §4, §5
compound,measurement,setting,value
COc1ccc2c(c1)c(CC(=O)O)c(C)n2C(=O)c1ccc(Cl)cc1 [Indomethacin],inhibition of swelling evoked by carrageenan (in words),"[1]; positive control, not observed at 24 hrs after stimulation",inhibited the swelling within 7 hrs after drug administration
same,Percentage change in swelling after injecting carrageenan (%) 2 hour,"[1]; rat, 2 hour",12.27 ± 4.61 %
same,Percentage change in swelling after injection of carrageenan (%) 2 hour,"[1]; rat, 2 hour (Table 13)",12.27 ± 4.61 %
same,Percentage change in swelling after injecting carrageenan (%) 4 hour,"[1]; rat, 4 hour",15.12 ± 7.85 %
same,Percentage change in swelling after injection of carrageenan (%) 4 hour,"[1]; rat, 4 hour (Table 13)",15.12 ± 7.85 %
same,Percentage change in swelling after injecting carrageenan (%) 6 hour,"[1]; rat, 6 hour",15.32 ± 7.84 %
same,Percentage change in swelling after injection of carrageenan (%) 6 hour,"[1]; rat, 6 hour (Table 13)",15.32 ± 7.84 %
same,Percentage change in swelling after injecting carrageenan (%) 24 hour,"[1]; rat, 24 hour",35.36 ± 14.65%
same,Percentage change in swelling after injection of carrageenan (%) 24 hour,"[1]; rat, 24 hour (Table 13)",35.36 ± 14.65%
COc1cc2c(cc1OC)[C@@H]1Cc3ccc(OC)c(OC)c3CN1CC2 [Tetrahydropalmatine],The number of writhing episodes,[2]; 0.090 g/kg,11 ± 6
C[C@@H]1C[C@H]2[C@@H]3CCC4=CC(=O)C=C[C@]4(C)[C@@]3(F)[C@@H](O)C[C@]2(C)[C@@]1(O)C(=O)CO [Dexamethasone],Swelling percentage of paw volume after stimulation (%) 1 hr,[3]; 1 hr,26.66 ± 3.34 %
same,Swelling percentage of paw volume after stimulation (%) 2 hr,[3]; 2 hr,19.31 ± 5.83 %
same,Swelling percentage of paw volume after stimulation (%) 3 hr,[3]; 3 hr,9.12 ± 4.42 %
same,Swelling percentage of paw volume after stimulation (%) 4 hr,[3]; 4 hr,7.49 ± 4.08%
COC1=C[C@@H]2[C@@H]3Cc4ccc(OC)c(O)c4[C@]2(CCN3C)CC1=O [Sinomenine],The number of writhing episodes,[2]; 0.0375 g/kg,25 ± 9
same,inhibition to the writhing activity of mice induced by acetic acid (in words),"[2]; tetrahydropalmatine 0.09 g/kg, sinomenine 0.0375 g/kg, capsule 12.7 g/kg and 25.50 g/kg",significant compared to control group

# Source: patent US20060110468A1, “Herbal formulations for arthritis” (priority 2004, published 2006)
